The values that follow come from US4859776A, “(S)-7-(3-aminopyrrolidin-1-yl)-1-(ortho, para-difluorophenyl)-1,4-dihydro-6-fluoro-4-oxo-1,8-naphthyridine-3-carb oxylic acid and method for its preparation” (Abbott Laboratories, priority 1988, dated 1989).

Bounds are passed on as bounds.

The conditions of assay [1]: one enantiomeric form vs the other form; background statement; cited from earlier work.
Another assay deals with S. Aureus NCTC 10649. In words: Mouse protection test, S. Aureus NCTC 10649. In kind it is in vivo. The conditions noted are these: Staphylococcus aureus. An excerpt:
(§1) The differences in in vivo antibacterial activity of racemic (R,S) compound (A) versus the (S) enantiomeric form of compound (A) are shown in Table I. |POTENCY OF (A) IN MOUSE PROTECTION TESTS | ED50 (mg/kg/day)

For assay [2] the following is noted: racemic mixture; J. Med. Chem., 29, 2363 (1986); cited from earlier work.
For another assay, the system named is P. Aeruginosa 5007. In words: Mouse protection test, P. Aeruginosa 5007. In kind it is in vivo. The conditions noted are these: Pseudomonas aeruginosa.
Text: as §1

For the next assay, the system named is E. Coli Juhl. Briefly: Mouse protection test, E. Coli Juhl. The conditions noted are these: Escherichia coli. In kind it is in vivo.
Text: as §1

For `CNCC(O)c1ccc(O)c(O)c1` (centres unmarked) [adrenalin], the “activity in raising blood pressure, one enantiomeric form versus the other” value in assay [1] is reported as “over ten times more active”.
Consider `NC1CCN(c2nc3c(cc2F)c(=O)c(C(=O)O)cn3-c2ccc(F)cc2F)C1` (racemic) [(R,S)--(A), 7-(3-aminopyrrolidin-1-yl)-1-(o,p-difluorophenyl)-1,4-dihydro-6-fluoro-4-oxo-1,8-naphthyridine-3-carboxylic acid], for which the ED50 in the assay with S. Aureus NCTC 10649 (NCTC10649, oral) is 1 mg/kg; with S. Aureus NCTC 10649 (NCTC10649, sc, subcutaneous), 0.4 mg/kg; with P. Aeruginosa 5007 (oral), 16 mg/kg; in the assay on P. Aeruginosa 5007 (sc, subcutaneous), > 20 mg/kg; in the assay with E. Coli Juhl (oral) it was 1.2 mg/kg; with E. Coli Juhl (sc, subcutaneous) it was 0.3 mg/kg. For the same molecule, in assay [2], the antibacterial properties result is “has been shown to exhibit antibacterial properties”.
With `N[C@H]1CCN(c2nc3c(cc2F)c(=O)c(C(=O)O)cn3-c2ccc(F)cc2F)C1` [(S)--(A), (S)-7-(3-aminopyrrolidin-1-yl)-1-(o,p-difluorophenyl)-1,4-dihydro-6-fluoro-4-oxo-1,8-naphthyridine-3-carboxylic acid], the ED50 in the assay on S. Aureus NCTC 10649 (NCTC10649, oral) was 0.8 mg/kg; in the assay with S. Aureus NCTC 10649 (NCTC10649, sc, subcutaneous), 0.4 mg/kg; in the assay on P. Aeruginosa 5007 (oral), 12.1 mg/kg; in the assay with P. Aeruginosa 5007 (sc, subcutaneous), 8.6 mg/kg; in the assay on E. Coli Juhl (oral), 0.8 mg/kg; in the assay on E. Coli Juhl (sc, subcutaneous) it was 0.2 mg/kg.

One may read the ED50 as the dose at which the effect has come halfway, by size or by number of responders. A higher ED50 goes with a need for a large dose.
